The test system of one data set is NMDA receptor. To be noted: cited from earlier work; for % response recovered with Ro 25-6981 and DCKA: Table 49 of WO 2017/100591; for Maximum measured potentiation (%) with Ro 25-6981 and DCKA: comparator examples from WO 2017/100591.
Data set [1] is described as follows: Aqueous solubility, shake-flask method. To be noted: phosphate buffer saline, pH 7.4, shake-flask, HPLC-UV; for solubility: pH 7.4, aqueous buffer, kinetic from dmso stock. It is filed as physicochemical. On the procedure:
The aqueous solubility of the test compound was determined in phosphate buffer saline, pH 7.4, measured by shake-flask method. In this assay, DMSO stock solution of test compound was added to buffer followed by equilibration (shaking), filtration, and determination of soluble amount by HPLC-UV. […] Other imidazopyrazinone comparators from WO 2017/100591 are provided for reference. All comparator analogs are active and potency data is available in WO 2017/100591. This improvement is advantageous because improved aqueous solubility, in one aspect, is anticipated to provide enhanced in vivo performance in humans.

The nature of data set [2]: Rat liver microsome stability. It is filed as in vitro ADME. Particulars: rat, liver microsomes; Table 4; read-out: Rat liver microsome (RLM) stability t1/2. The text has this:
The liver is the most important site of drug metabolism in the body. Approximately 60% of marketed compounds are cleared by hepatic CYP-mediated metabolism (McGinnity, D. F.; Soars, M. G.; Urbanowicz, R. A. and Riley, R. J.; Drug Metab. Disp. 32, 1247, (2004)). Liver microsomes are subcellular fractions which contain membrane bound drug metabolizing enzymes. Microsomes can be used to determine the in vitro intrinsic clearance of a compound. The use of species-specific microsomes can be used to enable an understanding of interspecies differences.

Another data set concerns the target T1, hNR2B (Homo sapiens, UniProt Q05586+Q13224).
T1 construct: expressed in transfected cells
The data set can be described thus: Oocyte 2EVC NR2B PAM activity. To be noted: read-out: Oocyte 2EVC NR2B PAM: EC50. It is filed as cell-based. The text has this: EC50 refers to the concentration of a compound that gives half-maximal response.

Data set [3] is described as follows: Rat IV pharmacokinetic study, in vivo clearance. The text has this: Rat microsomal stability data is provided as well. These improvements in in vitro and in vivo clearance are advantageous because reduced clearance, in one aspect, is anticipated to provide enhanced in vivo performance in humans.
For data set [4], the system named is impairment of MMN by MK-801. Nature of the data set: Mismatch negativity (MMN) efficacy model. To be noted: rat, MK-801 0.2 mg/kg, IP.
Description: Rats implanted with frontal EEG electrodes were presented with different audio stimuli comprising an auditory oddball “flip-flop” protocol. Briefly, 1,000 standard tones of 6.0 kHz were delivered at 90% probability, and 100 deviant tones of 8.0 kHz were delivered at 10% probability in pseudo-random order (the flip sequence), and then this sequence was then repeated with the 8 kHz tone as the standard, and the 6 kHz tone as the deviant (the flop sequence). MMN is calculated as a difference potential obtained by subtracting the averaged 8 kHz standard tone response (flop) from the averaged 8 kHz deviance tone response (flip) at each 1 ms time point over the EEG recording epochs from 50 ms prior to 150 ms after the onset of these 50 ms auditory tones.
Test sessions were comprised of three 20-minute flip-flop blocks.
The subject of data set [5] is PCP-induced cognitive impairment. Nature of the data set: Rat Novel Object Recognition (NOR) test, PCP-induced cognitive impairment. To be noted: PCP 5 mg/kg intraperitoneal twice daily for 7 days, 14-day washout.
Description: Rats were treated twice daily for 7 days with either saline vehicle (control group) or PCP (5 mg/kg, intraperitoneal). Following a 14-day washout period of no treatment, rats were tested in the NOR paradigm. Briefly, testing involves two sessions (T1 and T2), each lasting 3 minutes, 1 hour apart. […] In T1, rats are placed in a test arena with two identical objects and allowed to freely explore while their time spent exploring each object is recorded. In T2, rats are returned to the test arena where one of the objects remains the same and the other has been replaced with a novel object. The time spent exploring the novel object versus the time spent exploring the familiar object are recorded and compared to T1 object exploration times.

Values after ≈ are worked out from the molar mass of the structure shown. Like-named read-outs stand apart in the source and are kept apart here.

T1 sequence (Q13224 27-1484, other chains not shown): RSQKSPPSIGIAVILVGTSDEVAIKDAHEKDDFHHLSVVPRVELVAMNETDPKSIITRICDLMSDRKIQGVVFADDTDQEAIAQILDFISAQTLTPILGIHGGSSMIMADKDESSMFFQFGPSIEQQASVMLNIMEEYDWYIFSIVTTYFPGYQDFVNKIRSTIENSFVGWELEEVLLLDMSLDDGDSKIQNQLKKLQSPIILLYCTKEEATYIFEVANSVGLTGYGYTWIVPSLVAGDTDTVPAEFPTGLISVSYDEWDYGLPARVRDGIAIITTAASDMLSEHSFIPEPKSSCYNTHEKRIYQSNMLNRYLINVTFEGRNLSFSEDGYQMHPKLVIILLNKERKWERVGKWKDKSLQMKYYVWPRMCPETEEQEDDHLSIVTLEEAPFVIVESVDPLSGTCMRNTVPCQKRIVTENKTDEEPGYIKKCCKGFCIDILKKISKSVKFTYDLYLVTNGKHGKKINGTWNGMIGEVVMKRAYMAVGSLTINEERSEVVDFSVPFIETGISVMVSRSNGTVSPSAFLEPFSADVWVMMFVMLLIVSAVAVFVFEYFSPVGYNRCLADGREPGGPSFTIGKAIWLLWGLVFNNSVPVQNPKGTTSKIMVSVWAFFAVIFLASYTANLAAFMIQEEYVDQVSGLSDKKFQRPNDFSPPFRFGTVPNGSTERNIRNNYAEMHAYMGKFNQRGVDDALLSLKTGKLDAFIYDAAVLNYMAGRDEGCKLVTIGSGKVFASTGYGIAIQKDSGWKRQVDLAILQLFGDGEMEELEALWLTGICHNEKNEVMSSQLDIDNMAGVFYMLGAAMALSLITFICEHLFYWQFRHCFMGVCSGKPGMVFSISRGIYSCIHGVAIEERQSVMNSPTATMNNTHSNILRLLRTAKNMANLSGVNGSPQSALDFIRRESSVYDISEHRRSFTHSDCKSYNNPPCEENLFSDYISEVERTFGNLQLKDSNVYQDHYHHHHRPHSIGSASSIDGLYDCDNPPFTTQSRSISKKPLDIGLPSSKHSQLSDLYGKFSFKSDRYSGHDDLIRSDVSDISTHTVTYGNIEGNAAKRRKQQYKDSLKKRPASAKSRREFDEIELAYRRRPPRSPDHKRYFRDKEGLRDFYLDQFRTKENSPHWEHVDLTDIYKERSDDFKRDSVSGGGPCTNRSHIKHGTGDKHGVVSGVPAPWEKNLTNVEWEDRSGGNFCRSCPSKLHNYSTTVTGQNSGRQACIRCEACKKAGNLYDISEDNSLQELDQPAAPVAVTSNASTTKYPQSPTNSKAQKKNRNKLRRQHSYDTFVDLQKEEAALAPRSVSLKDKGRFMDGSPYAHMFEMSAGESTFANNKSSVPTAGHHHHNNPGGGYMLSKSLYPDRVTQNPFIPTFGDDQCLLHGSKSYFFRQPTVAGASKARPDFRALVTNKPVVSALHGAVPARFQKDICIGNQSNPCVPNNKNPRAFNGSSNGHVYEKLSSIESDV

With `CC1(F)CN(C(=O)Cn2ccn3c(C4CC4)nc(-c4ccc(F)c(Cl)c4)c3c2=O)C1` [Example 436], the “% response recovered with Ro 25-6981 and DCKA” value (“% response recovered” below) in the data set on NMDA receptor is 100%. In addition, the solubility (as a rule, how much of the substance goes into solution per volume) in data set [1] amounted to 3 µM (≈ 1.3 µg/mL).
With `Cc1nc(-c2ccc(F)c(Cl)c2)c2c(=O)n(CC(=O)N3CC(C)(F)C3)ccn12` [Example 430], in data set [1], the Aqueous solubility (as a rule, the concentration that dissolves in the medium under given conditions) came out at 43 µM.
In turn, `CC1(F)CN(C(=O)Cn2ccn3cnc(-c4ccc(F)c(C(F)(F)F)c4)c3c2=O)C1` [Example 446] came in with a solubility in data set [1] of 9 µM (≈ 3.84 µg/mL).
Regarding `CC1(F)CN(C(=O)Cn2ccc3c(c(-c4ccc(F)c(Cl)c4)cn3C3CC3)c2=O)C1` [Example 285], in the data set with NMDA receptor (data of WO 2017/100591), the “potency in the Ro 25-6981/DCKA assay (in words)” value is on record as “excellent potency”. Moreover, in data set [2], the half-life stood at 37.8 min. Further, the 50% effective concentration (EC50) (as a rule, the concentration at which the effect is half-maximal) at hNR2B (Table 4) came to 200 nM. Moreover, the clearance (commonly a measure of how efficiently the substance is removed, as volume per time) in data set [3] was determined as 22.2 mL/min/kg.
`CC1(F)CN(C(=O)Cn2ccc3scc(-c4ccc(F)c(Cl)c4)c3c2=O)C1` [Example 39]: the half-life in data set [2] came out at 42 min. For the same molecule, the concentration for a half-maximal effect (EC50) at hNR2B (Table 4) was 726 nM. Moreover, the clearance in data set [3] came to 27.8 mL/min/kg.
For the molecule `Cc1nc(-c2ccc(Cl)c(Cl)c2)c2c(=O)n(CC(=O)N3CCC(F)C3)ccn12` (centres unmarked) [Example 429], in data set [1], the solubility is 26 µM (≈ 11 µg/mL).
On to `O=C(Cn1ccc2scc(-c3ccc(F)c(Cl)c3)c2c1=O)N1CCC(F)C1` (centres unmarked) [Example 9], for which, in data set [2], the half-life was found to be 37.8 min. For the same molecule, the EC50 on hNR2B (Table 4) worked out at 3530 nM. The clearance in data set [3] stood at 35.5 mL/min/kg.
On to `CC1(F)CN(C(=O)Cn2ccc3scc(-c4ccc(F)c(C(F)(F)F)c4)c3c2=O)C1` [Example 43], for which, in data set [2], the half-life was 60.8 min. Besides, the 50% effective concentration (EC50) on hNR2B (Table 4) worked out at 441 nM. This molecule registered a clearance in data set [3] of 29.4 mL/min/kg.
In turn, `CC1(F)CN(C(=O)Cn2ccn3c(C4CC4)nc(-c4ccc(F)c(C(F)(F)F)c4)c3c2=O)C1` [Example 438] displayed a solubility in data set [1] of 2 µM (≈ 0.933 µg/mL).
As to `O=C(Cn1ccn2c(C3CC3)nc(-c3ccc(Cl)c(Cl)c3)c2c1=O)N1CCC(F)C1` (centres unmarked) [Example 433], in data set [1], the concentration in solution (solubility) came to 30 µM (≈ 13.5 µg/mL).
Consider `CC1(F)CN(C(=O)Cn2ccn3c(C4CC4)nc(-c4cnc(Cl)c(Cl)c4)c3c2=O)C1` [Example 437], for which the solubility in data set [1] is 7 µM (≈ 3.15 µg/mL).
For `CC1(F)CN(C(=O)Cn2ccn3ccc(-c4ccc(Cl)c(Cl)c4)c3c2=O)C1` [Example 396], the half-life in data set [2] amounted to 75 min. The EC50 on hNR2B (Table 4) was found to be 589 nM. Besides, the clearance in data set [3] worked out at 23.4 mL/min/kg.
As to `Cc1cc(-c2nc(C3CC3)n3ccn(CC(=O)N4CC(C)(F)C4)c(=O)c23)ccc1Cl` [Example 443], the solubility in data set [1] stood at 91 µM (≈ 39 µg/mL).
As to `CC1(F)CN(C(=O)Cn2ccc3scc(-c4ccc(Cl)c(Cl)c4)c3c2=O)C1` [Example 42], in data set [2], the half-life is 36 min. In addition, the concentration giving a half-maximal response (EC50) on hNR2B (Table 4) was found to be 463 nM. In data set [3], the clearance was 26.9 mL/min/kg.
Consider `O=C(Cn1cnc2[nH]cc(-c3ccc(Cl)c(C(F)(F)F)c3)c2c1=O)N1C[C@@H](F)[C@@H](F)C1` [Example 181], for which, in the data set on NMDA receptor, the “% response recovered” value is recorded as 69%; the “Maximum measured potentiation (%) with Ro 25-6981 and DCKA” value was 129%. In addition, the EC50 on hNR2B (Table 1) came out at 1190 nM.
For `Cc1nc(-c2ccc(F)c(Cl)c2)c2c(=O)n(CC(=O)N3CC(C)(F)C3)ccn12` [Example 426], the Aqueous solubility in data set [1] came to 20 µM. This counts as double-digit micromolar.
As to `O=C(Cn1ccc2scc(-c3cnc(Cl)c(Cl)c3)c2c1=O)N1CCC(F)C1` (centres unmarked) [Example 12], the half-life in data set [2] came out at 200 min. Also, the EC50 at hNR2B (Table 4) is 5630 nM. This molecule registered a clearance in data set [3] of 19.4 mL/min/kg.
Consider `O=C(Cn1cnc2[nH]cc(-c3ccc(F)c(C(F)(F)F)c3)c2c1=O)N1CCC(F)C1` (centres unmarked) [Example 174], for which, in the data set on NMDA receptor, the “% response recovered” value is recorded as 91%; the “Maximum measured potentiation (%) with Ro 25-6981 and DCKA” value is reported as 124%. Moreover, the EC50 at hNR2B (Table 1) turned out to be 1500 nM.
As for `C[C@]12N[C@H](Cc3ccccc31)c1ccccc12` [MK-801], in data set [4], the “MMN after vehicle plus MK-801 compared to vehicle plus saline” value is listed as “significantly impaired MMN”.
The molecule `CC1(F)CN(C(=O)Cn2ccn3c(C4CC4)nc(-c4ccc(Cl)c(Cl)c4)c3c2=O)C1` [Example 435] returned a solubility in data set [1] of 14 µM (≈ 6.29 µg/mL).
The same measure, in the same setting: next, `CC1(F)CN(C(=O)Cn2ccn3cnc(-c4ccc(F)c(Cl)c4)c3c2=O)C1` [Example 445]: 14 µM (≈ 5.5 µg/mL); `Cc1nc(-c2ccc(F)c(C(F)(F)F)c2)c2c(=O)n(CC(=O)N3CCC(F)C3)ccn12` (centres unmarked) [Example 427]: 7 µM (≈ 3.08 µg/mL).
For `O=C(Cn1ccc2scc(-c3ccc(F)c(Cl)c3)c2c1=O)N1CCCC1` [Example 3], the half-life in data set [2] came to 47.2 min. In addition, on hNR2B (Table 4), the concentration giving a half-maximal response (EC50) stood at 7010 nM. Further, the clearance in data set [3] amounted to 43.6 mL/min/kg.
For `c1ccc(C2(N3CCCCC3)CCCCC2)cc1` [PCP, phencyclidine], in data set [5], the “time spent exploring the novel object compared to saline control” value is recorded as “significant reduction in time spent exploring the novel object”.
In the case of `CC1(F)CN(C(=O)Cn2ccn3ccc(-c4ccc(F)c(Cl)c4)c3c2=O)C1` [Example 397], in data set [2], the half-life worked out at 37.3 min. For the same molecule, the concentration giving a half-maximal response (EC50) on hNR2B (Table 4) was found to be 1210 nM. In addition, the clearance in data set [3] was 46.2 mL/min/kg.
With `CC1(F)CN(C(=O)Cn2ccn3cnc(-c4ccc(Cl)c(Cl)c4)c3c2=O)C1` [Example 447], the solubility in data set [1] is 69 µM (≈ 28.2 µg/mL).

Values taken from patent US11542264B2, “Heteroaromatic NMDA receptor modulators and uses thereof” (Cadent Therapeutics, Inc., priority 2018, dated 2023).
